According to ChEMBL document CHEMBL3784981, “Anti-inflammatory, analgesic and antioxidant activities of novel kyotorphin-nitroxide hybrid molecules” (Bioorg Med Chem Lett, 2016):
Activity calls are given as the source filed them.

Assays:
Mus musculus [1] = test: Analgesic activity in ICR mouse assessed as pain threshold at 0.1 umol/kg administered through oral gavage after 90 mins by tail flick method; assay type: functional
[2] = Antioxidant activity in H2O2/Fe(II)-stimulated rat PC12 cells assessed as OH radical scavenging activity measured by cell survival preincubated with compound for 1 hr measured after 14 hrs by MTT assay; assay type: functional, cell-based; conditions: pc-12
Mus musculus [3] = test: Analgesic activity in ICR mouse assessed as pain threshold at 0.1 umol/kg administered through oral gavage after 60 mins by tail flick method; assay type: functional
Mus musculus [4] = test: Analgesic activity in ICR mouse assessed as pain threshold at 0.1 umol/kg administered through oral gavage after 150 mins by tail flick method; assay type: functional
Mus musculus [5] = test: Analgesic activity in ICR mouse assessed as pain threshold at 0.1 umol/kg administered through oral gavage after 120 mins by tail flick method; assay type: functional
Mus musculus [6] = test: Antiinflammatory activity in ICR mouse assessed as inhibition of xylene-induced ear edema at 0.1 umol/kg, po administered 30 mins prior to xylene challenge measured after 2hrs; assay type: functional
[7] = Antioxidant activity in rat PC12 cells assessed as H2O2 radical scavenging activity measured as cell survival preincubated with compound for 1 hr measured after 14 hrs by MTT assay; assay type: functional, cell-based; conditions: pc-12
[8] = Antioxidant activity in sodium nitroprusside-stimulated rat PC12 cells assessed as NO radical scavenging activity measured as cell survival preincubated with compound for 1 hr followed by addition of sodium nitroprusside for 2 measured after 14 hrs by MTT assay; assay type: functional, cell-based; conditions: pc-12
Mus musculus [9] = test: Analgesic activity in ICR mouse assessed as pain threshold at 0.1 umol/kg administered through oral gavage after 30 mins by tail flick method; assay type: functional
Mus musculus [10] = test: Analgesic activity in ICR mouse assessed as pain threshold at 0.1 umol/kg administered through oral gavage after 180 mins by tail flick method; assay type: functional
Mus musculus [11] = test: Analgesic activity in ICR mouse assessed as pain threshold at 0.05 umol/kg administered through oral gavage after 90 mins by tail flick method; assay type: functional
Mus musculus [12] = test: Analgesic activity in ICR mouse assessed as pain threshold at 0.15 umol/kg administered through oral gavage after 120 mins by tail flick method; assay type: functional
HUVEC [13] = test: Inhibition of simulated ischemia/reperfusion-induced ROS production in human HUVEC cells at 30 ug/ml after 2 hrs by Hoechst 33342 dye based fluorescence assay; assay type: functional, cell-based
HUVEC [14] = test: Inhibition of simulated ischemia/reperfusion-induced cytochrome C release in human HUVEC cells at 30 ug/ml after 2 hrs by fluorescence assay (reference value: 75.3 +/- 5.2 %); assay type: functional; design: scale not given: the % may be the effect or the level left
Mus musculus [15] = test: Analgesic activity in ICR mouse assessed as pain threshold at 0.15 umol/kg administered through oral gavage after 150 mins by tail flick method; assay type: functional
Mus musculus [16] = test: Analgesic activity in ICR mouse assessed as pain threshold at 0.055 umol/kg administered through oral gavage after 150 mins by tail flick method; assay type: functional
Mus musculus [17] = test: Analgesic activity in ICR mouse assessed as pain threshold at 0.05 umol/kg administered through oral gavage after 60 mins by tail flick method; assay type: functional
Mus musculus [18] = test: Analgesic activity in ICR mouse assessed as pain threshold at 0.15 umol/kg administered through oral gavage after 30 mins by tail flick method; assay type: functional
Mus musculus [19] = test: Analgesic activity in ICR mouse assessed as pain threshold at 0.05 umol/kg administered through oral gavage after 30 mins by tail flick method; assay type: functional
HUVEC [20] = test: Inhibition of simulated ischemia/reperfusion-induced human HUVEC cells death assessed as increase in tubular mitochondria levels at 30 ug/ml after 2 hrs by Hoechst 33342 dye based fluorescence assay (reference value: 11.3 +/- 2.1 %); assay type: functional; design: scale not given: the % may be the effect or the level left
Mus musculus [21] = test: Analgesic activity in ICR mouse assessed as pain threshold at 0.055 umol/kg administered through oral gavage after 180 mins by tail flick method; assay type: functional
Mus musculus [22] = test: Analgesic activity in ICR mouse assessed as pain threshold at 0.05 umol/kg administered through oral gavage after 120 mins by tail flick method; assay type: functional
Mus musculus [23] = test: Analgesic activity in ICR mouse assessed as pain threshold at 0.15 umol/kg administered through oral gavage after 180 mins by tail flick method; assay type: functional
HUVEC [24] = test: Inhibition of simulated ischemia/reperfusion-induced human HUVEC cells death assessed as decrease in fragmented mitochondria at 30 ug/ml after 2 hrs by Hoechst 33342 dye based fluorescence assay; assay type: functional, cell-based
Mus musculus [25] = test: Antiinflammatory activity in ICR mouse assessed as inhibition of xylene-induced ear edema at 0.15 umol/kg, po administered 30 mins prior to xylene challenge measured after 2hrs; assay type: functional
Mus musculus [26] = test: Antiinflammatory activity in ICR mouse assessed as inhibition of xylene-induced ear edema at 0.05 umol/kg, po administered 30 mins prior to xylene challenge measured after 2hrs; assay type: functional
Mus musculus [27] = test: Analgesic activity in ICR mouse assessed as pain threshold at 0.15 umol/kg administered through oral gavage after 60 mins by tail flick method; assay type: functional
Mus musculus [28] = test: Analgesic activity in ICR mouse assessed as pain threshold at 0.15 umol/kg administered through oral gavage after 90 mins by tail flick method; assay type: functional
Mus musculus [29] = test: Analgesic activity in ICR mouse assessed as pain threshold at 165 umol/kg administered through oral gavage after 180 mins by tail flick method; assay type: functional
Mus musculus [30] = test: Analgesic activity in ICR mouse assessed as pain threshold at 165 umol/kg administered through oral gavage after 90 mins by tail flick method; assay type: functional
Mus musculus [31] = test: Analgesic activity in ICR mouse assessed as pain threshold at 165 umol/kg administered through oral gavage after 120 mins by tail flick method; assay type: functional
Mus musculus [32] = test: Analgesic activity in ICR mouse assessed as pain threshold at 165 umol/kg administered through oral gavage after 60 mins by tail flick method; assay type: functional
Mus musculus [33] = test: Analgesic activity in ICR mouse assessed as pain threshold at 165 umol/kg administered through oral gavage after 30 mins by tail flick method; assay type: functional
Mus musculus [34] = test: Analgesic activity in ICR mouse assessed as pain threshold at 165 umol/kg administered through oral gavage after 150 mins by tail flick method; assay type: functional

| Compound | Activity (Mus musculus [1]) | EC50 [2] | Activity (Mus musculus [3]) | Activity (Mus musculus [4]) | Activity (Mus musculus [5]) | inhibition (INH) (Mus musculus [6]) | EC50 [7] | EC50 [8] | Activity (Mus musculus [9]) | Activity (Mus musculus [10]) | further results |
| --- | --- | --- | --- | --- | --- | --- | --- | --- | --- | --- | --- |
| CCc1cc(O)ccc1C[C@H](NC(=O)COc1ccc(C2=[N+]([O-])C(C)(C)C(C)(C)N2[O])cc1)C(=O)N[C@@H](CCCNC(=N)N)C(=O)O | 21.89% | 22.7 µM | 17.31% | 22.34% | 22.78% | 30.26% | 31.3 µM | 8.1 µM | 10.78% | 15.04% |  |
| CC1(C)N([O])C(c2ccc(OCC(=O)NCCCNC(=O)[C@H](Cc3ccc(O)cc3)NC(=O)[C@@H](N)CCCNC(=N)N)cc2)=[N+]([O-])C1(C)C | 44.76% | 22.7 µM | 29.36% | 51.33% | 60.32% | 73.47% | 31.3 µM | 8.1 µM | 16.3% | 22.01% | Activity (Mus musculus [11]): 18.37%; Activity (Mus musculus [12]): 68.42%; Activity (HUVEC [13]): Active; Activity (HUVEC [14]): 27.8%; Activity (Mus musculus [15]): 52.45%; Activity (Mus musculus [16]): 19.35%; Activity (Mus musculus [17]): 12.31%; Activity (Mus musculus [18]): 20.17%; Activity (Mus musculus [19]): 8.16%; Activity (HUVEC [20]): 55.7%; Activity (Mus musculus [21]): 16.28%; Activity (Mus musculus [22]): 25.36%; Activity (Mus musculus [23]): 30.34%; inhibition (HUVEC [24]): Active; inhibition (INH) (Mus musculus [25]): 78.58%; inhibition (INH) (Mus musculus [26]): 37.33%; Activity (Mus musculus [27]): 33.47%; Activity (Mus musculus [28]): 50.35% |
| CC1(C)N([O])C(c2ccc(OCC(=O)N[C@@H](Cc3ccc(O)cc3)C(=O)N[C@@H](CCC(=O)O)C(=O)O)cc2)=[N+]([O-])C1(C)C | 26.41% | 22.7 µM | 13.44% | 15.11% | 13.58% | 32.22% | 31.3 µM | 8.1 µM | 11.1% | 14.22% |  |
| CC1(C)N([O])C(c2ccc(OCC(=O)N[C@@H](Cc3ccc(O)c(CO)c3)C(=O)N[C@@H](CCCNC(=N)N)C(=O)O)cc2)=[N+]([O-])C1(C)C | 22.37% | 22.7 µM | 19.13% | 33.56% | 25.78% | 31.23% | 31.3 µM | 8.1 µM | 12.12% | 20.14% |  |
| CC1(C)N([O])C(c2ccc(OCC(=O)N[C@@H](Cc3ccc(O)cc3)C(=O)N[C@@H](CCCCN)C(=O)O)cc2)=[N+]([O-])C1(C)C | 29.31% | 22.7 µM | 19.35% | 33.73% | 38.33% | 36.94% | 31.3 µM | 8.1 µM | 12.56% | 13.58% |  |
| CC1(C)N([O])C(c2ccc(OCC(=O)N[C@@H](CCCNC(=N)N)C(=O)N[C@@H](Cc3ccc(O)cc3)C(=O)O)cc2)=[N+]([O-])C1(C)C | 26.97% | 22.7 µM | 14.31% | 11.91% | 13.18% | 28.29% | 31.3 µM | 8.1 µM | 10.1% | 10.05% |  |
| CC(=O)Oc1ccccc1C(=O)O [ASPIRIN] |  |  |  |  |  |  |  |  |  |  | Activity (Mus musculus [29]): 20.56%; inhibition in vivo at 0.1 µmol/kg (Mus musculus [6]; Mus musculus, ICR, Ear, po): 49.9%; Activity (Mus musculus [30]): 53.2%; Activity (Mus musculus [31]): 25.21%; Activity (Mus musculus [32]): 66.32%; Activity (Mus musculus [33]): 33.21%; Activity (Mus musculus [34]): 15.84% |
